# Measurements from patent US20250082760A1 (priority 2020, published 2025).
# Structures can show the parent of a compound that is named as a salt.
# Experiments:
# [1] = system: nitroglycerin-induced migraine mouse model; test: nitroglycerin-induced migraine mouse model (hot plate, head scratching, body weight); assay type: in vivo, ICR mice; conditions: for hind feet licking time (hot plate) / total number of head scratching times: reference model group, day 5; for hind feet licking time (hot plate): 45 min after modeling, p<0.05
# Procedure: 48 ICR mice weigt 18-22 g, half male and half female; purchased from Qinglongshan Animal Breeding Farm, Jiangning District, Nanjing City, certificate: SCXK (Su) 2017-0001; rearing conditions: room temperature 18-20° C., same sex rearing in separate cages, 12 hours of light, regular ventilation, conventional full-price solid feed feeding, bedding changed every two days; 48 mice were randomly divided into 6 groups (blank control group, model group, positive drug group, low-dose group of test drug, medium-dose group of test drug, high-dose group of test drug), 8 animals (4♀4) in each group, marked No. 1-8 with picric acid respectively.
# Solvent: 0.5% CMC-Na aqueous solution; positive drug: flunarizine hydrochloride (sibelin) capsules (specification 5 mg), take the contents in a mortar, add 100 ml of 0.5% CMC-Na solution while grinding, placed in EP tubes for standby; Test drug (compound 5): dissolve into 5, 10, 20 mg/ml solutions with distilled water respectively, and placed in EP tubes for standby; Modeling drug (nitroglycerin): take 2 nitroglycerin tablets (specification 5 mg), crushed into powder, placed in EP tubes, added 500 μl of propylene glycol with a pipette and shaken well, standing still for 5 minutes, added 9.5 ml of normal saline, shaken well and standing still overnight, take the supernatant (containing nitroglycerin) 1 mg/ml) for use.
# Except for the first group (blank control group), animals in other groups were subcutaneously injected with 10 mg/kg (0.2 ml/20 g) of nitroglycerin back-up solution 1 h after each administration (modeling once every other day on the 1st, 3rd, and 5th days).
# The first group was the blank control group, which was given 0.5% CMC-Na 0.2 ml/20 g by gavage; the second group was the model group, which was given 0.5% CMC-Na by gavage; the third group was the positive drug group, which was given by gavage Flunarizine hydrochloride (sibilin) 1 mg/kg; the fourth group was the low-dose group of test drug, which was given 100 mg/kg of compound 5 by gavage; the fifth group was the medium-dose group of test drug, which was given 200 mg/kg of compound 5 by gavage; the sixth group was the high-dose group of test drug, which was given 400 mg/kg of compound 5 by gavage. Dosing every other day on days 1, 3, and 5.
# In behavioral studies, mice scratching their heads for more than 5 times or scratching their faces with forelimbs for more than 5 times were identified as migraine-related behaviors caused by modeling, with a record of scratching their heads once; in the hot plate method, mice lifted their hind limbs and licked their hind feet as the observation indicator, record the time immediately.
# [2] = stability (degradation test) in acidified plasma; assay type: in vitro ADME, rat; conditions: for Sample Peak Average: rat, 5 μmol/ml
# Procedure: • a: Compound 5 prepared in Example 5 was dissolved in purified water to prepare solution A with a concentration of 10 mg/ml; 150 μl of solution A was added to 660 μl of pre-warmed plasma (37° C.), and the pH was adjusted with 0.1% acetic acid to dissolve the sample clear to obtain solution B; • b: Solution B (5 μmol/ml) was stirred in a water bath at 37° C. for a certain period of time (1 min, 2 min, 4 min, 8 min, 16 min, 30 min, 1 h, 2 h, 4 h) and 50 μl was sampled at each time point; • c: 50 μl of the sampled solution was added to 950 μl methanol (0.1% AcH) to precipitate plasma proteins, resulting in mixture C. • d: The mixture C was vortexed for 1 s, centrifuged at 12000 r for 3 min, and the supernatant was taken for testing.
# (§1) Liquid phase detection: take 10 μl of the supernatant after the above centrifugation into a sample for measurement.
# righting reflex in mice = test: mouse righting reflex test (sedative and hypnotic effects); assay type: in vivo, Kunming mice
# Procedure: Experimental animals, SPF Kunming mice, male, 20-30 g, Laboratory Animal Center of Lanzhou University (certificate number: SCXK (Gan) 2018-0002), reared in separate cages, temperature, 22±1° C., humidity, 50%, automatic in the light-controlled 12 h/12 h light-dark cycle (light-on time 8:00 h, light-off time 20:00 h, light intensity ≈100 lux) environment, free food and activities, adapted to the experimental environment for 5 days.
# Statistical analysis, the experimental data were analyzed by SPSS 19.0 statistical software, and all data were expressed as Means±SEM.
# [3] = stability (degradation test) in fresh rat plasma; assay type: in vitro ADME; conditions: for Sample Peak Average: rat, 5 μmol/ml
# Procedure: Experimental sample: compound 5 prepared in Example 5; 5% glucose (Xi′an Jingxi Shuanghe Pharmaceutical Co., Ltd.); rat plasma (source: Animal Center, Department of Medicine, Xi′an Jiaotong University) Fresh plasma sample preparation: • a: Compound 5 prepared in Example 5 was dissolved in purified water to prepare solution A with a concentration of 10 mg/ml; 150 μl of solution A was added to 660 μl of preheated plasma (37° C.) to obtain solution B; • b: Solution B (5 μmol/ml) was stirred in a 37° C. water bath for a certain period of time (1 min, 2 min, 4 min, 8 min, 16 min, 30 min, 1 h, 2 h, 4 h) and 50 μl was sampled at each time point; • c: 50 μl of sampled solution) was added to 950 μl of methanol (0.1% AcH) to precipitate plasma proteins, resulting in mixture C; • d: The mixture C was vortexed for 1 s, centrifuged at 12000 r for 3 min, and the supernatant was taken for testing.
# as §1
# [4] = intraperitoneal, compound 5 56 mg/kg, Pro 25 mg/kg, A1P1 24 and 25 mg/kg, Dia 5 mg/kg, n = 7, listed as compound 5, hydrochloride
compound,measurement,setting,value
"CC(C)c1cccc(C(C)C)c1OC(=O)CC1(CN(C)C)CCCCC1 [Compound 5, 2,6-diisopropylphenyl 2-(1-((dimethylamino)methyl)cyclohexyl)acetate hydrochloride]",logP,physchem,1.37
same,alleviation of nitroglycerin-induced migraine in mice,"[1]; by gavage on days 1, 3, 5, compound 5 100, 200, 400 mg/kg",effectively alleviate
same,weight gain of mice,"[1]; mouse, in vivo",no significant effect
same,hind feet licking time (hot plate),[1]; high dose 400 mg/kg gavage,significant difference
same,total number of head scratching times,[1]; high dose 400 mg/kg gavage,significant difference (p<0.05)
same,total number of head scratching times,[1]; low dose 100 mg/kg gavage,extremely significant (p<0.01)
same,total number of head scratching times,[1]; medium dose 200 mg/kg gavage,extremely significant (p<0.01)
same,hind feet licking time (hot plate),[1]; middle dose 200 mg/kg gavage,significant difference
same,degradation / stability in acidified plasma,"[2]; plasma acidified with 0.1% acetic acid, 37° C., up to 2 h",not significantly degraded
same,Sample Peak Average,[2]; 1 min,196752060
same,Sample Peak Average,[2]; 2 min,189140125
same,Sample Peak Average,[2]; 4 min,184526452
same,Sample Peak Average,[2]; 8 min,182379068
same,Sample Peak Average,[2]; 16 min,176475001
same,Sample Peak Average,[2]; 30 min,179508039
same,Sample Peak Average,[2]; 1 h,175087504
same,Sample Peak Average,[2]; 2 h,171193983
same,sedative effect,"righting reflex in mice; intraperitoneal 56 mg/kg, versus Pro and A1P1",better sedative effect
same,Observation of activity and other phenomena,"righting reflex in mice; intraperitoneal, compound 5 56 mg/kg, Pro 25 mg/kg, A1P1 24 and 25 mg/kg, Dia 5 mg/kg, n = 7, hydrochloride",Reduced activity
same,Disappearance time (latency of disappearance of the righting reflex),righting reflex in mice; [4],did not disappear
same,Observation of activity and other phenomena,righting reflex in mice; [4],significantly reduced
same,degradation / stability in fresh plasma,"[3]; fresh rat plasma, 37° C., up to 4 h",not significantly degraded
same,Sample Peak Average,[3]; 1 min,203062103
same,Sample Peak Average,[3]; 2 min,181706084
same,Sample Peak Average,[3]; 4 min,161303805
same,Sample Peak Average,[3]; 8 min,178769005
same,Sample Peak Average,[3]; 16 min,189298224
same,Sample Peak Average,[3]; 1 h,230407155
same,Sample Peak Average,[3]; 2 h,260803581
same,Sample Peak Average,[3]; 4 h,246523592
